Experimental data reported in patent US20250161319A1, “USE OF HPK1 INHIBITOR IN TREATMENT OF INTERFERON-RELATED DISEASES” (priority 2022, published 2025).

Key:
[1] = biological target: T1, HPK1 (Homo sapiens (Human), UniProt Q92918); assay: Inhibition of HPK1 kinase activity in vitro (ADP-Glo), compounds of Formula I-1; assay type: biochemical; conditions: MBP substrate
Experimental: The starting concentration for all tested compounds was 10 μM, and diluted in three-fold concentration gradient for a total of 10 concentration points in duplicate.
Before the experiment, 50 μM DTT and the enzymatic reaction system buffer were prepared.
The compound dilution was transferred into 384-well plate by using a pipette, afterwards, the 384-well plate was sealed and centrifuged at 1000 g for 1 min. 2-fold concentration of HPK1 solution was prepared in the kinase buffer, and then 2.5 μL of the prepared 2-fold concentration of HPK1 solution was added into the 384 wells, centrifuged at 1000 g for 30 s, and incubated for 10 min at room temperature. A mixture of 2-fold concentration of MBP and ATP was prepare in the kinase buffer, and […] of prepared mixture of 2-fold concentration of MBP and ATP was added into the above reaction system for the reaction, centrifuged at 1000 g for 30 s, and then incubated at room temperature for 1 h, 5 μL of ADP-Glo reagent was added into the reaction system, and incubated at room temperature for 40 min. 10 μL of kinase detection reagent was added and incubated at room temperature for 40 min.
In the above formula, cmpd refers to the tested compound, PC refers to the positive control, and VC refers to the negative control.

[2] = biological target: T2, GCK (Homo sapiens (Human), UniProt Q12851); assay: In vitro enzyme activity, ADP-Glo method (Example 3); assay type: biochemical; conditions: recombinant protein, read-out: GCK inhibiting activity level (IC50)
T2 sequence (Q12851 whole entry): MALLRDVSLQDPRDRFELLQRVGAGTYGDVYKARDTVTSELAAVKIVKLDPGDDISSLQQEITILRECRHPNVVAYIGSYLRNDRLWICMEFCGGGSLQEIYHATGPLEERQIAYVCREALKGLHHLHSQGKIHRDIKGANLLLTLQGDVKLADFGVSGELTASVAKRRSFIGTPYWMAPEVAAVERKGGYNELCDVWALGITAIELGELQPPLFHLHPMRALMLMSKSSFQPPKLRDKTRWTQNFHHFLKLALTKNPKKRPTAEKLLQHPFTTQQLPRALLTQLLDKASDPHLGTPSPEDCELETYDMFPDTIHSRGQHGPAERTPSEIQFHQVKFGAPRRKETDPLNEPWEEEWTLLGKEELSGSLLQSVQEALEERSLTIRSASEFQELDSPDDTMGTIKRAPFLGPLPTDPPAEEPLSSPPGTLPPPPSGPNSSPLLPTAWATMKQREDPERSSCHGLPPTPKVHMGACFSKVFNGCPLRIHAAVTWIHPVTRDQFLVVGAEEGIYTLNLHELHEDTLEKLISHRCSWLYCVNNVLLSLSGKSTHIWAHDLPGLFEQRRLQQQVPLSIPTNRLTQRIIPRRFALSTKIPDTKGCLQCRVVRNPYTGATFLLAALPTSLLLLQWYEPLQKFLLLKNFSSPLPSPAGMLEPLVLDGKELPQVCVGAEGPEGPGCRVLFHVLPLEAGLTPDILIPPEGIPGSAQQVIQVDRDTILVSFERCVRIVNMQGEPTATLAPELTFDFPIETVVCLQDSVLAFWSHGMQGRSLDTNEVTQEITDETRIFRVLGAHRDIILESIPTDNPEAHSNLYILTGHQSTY
Experimental: (§1) ADP-Glo™ Kinase Assay is a luminescent ADP assay that provides a versatile, homogeneous, high-throughput screening method to measure kinase activity by quantifying the amount of ADP produced during the kinase reaction. The assay was performed in two steps; first, after the kinase reaction, an equal volume of ADP-Glo™ Reagent was added to quench the kinase reaction and consume the remaining ATP. Second, the Kinase Assay Reagent was added to concurrently convert ADP to ATP and allow measurement of newly synthesized ATP using the luciferase/luciferin reaction. The light produced was measured using a photometer. Luminescence can be correlated with ADP concentration by using an ATP to ADP conversion curve. […] Meanwhile, better selectivity was shown on kinases with closer homology such as GCK/TNIK/PDK1.

[3] = biological target: T1, HPK1; assay: as above; assay type: biochemical; conditions: recombinant protein, read-out: HPK1 inhibiting activity level (IC50)
Experimental: as §1

[4] = biological target: T3, PDK1 (Homo sapiens (Human), UniProt O15530); assay: as above; assay type: biochemical; conditions: recombinant protein, read-out: PDK1 inhibiting activity level (IC50)
T3 sequence (O15530 whole entry): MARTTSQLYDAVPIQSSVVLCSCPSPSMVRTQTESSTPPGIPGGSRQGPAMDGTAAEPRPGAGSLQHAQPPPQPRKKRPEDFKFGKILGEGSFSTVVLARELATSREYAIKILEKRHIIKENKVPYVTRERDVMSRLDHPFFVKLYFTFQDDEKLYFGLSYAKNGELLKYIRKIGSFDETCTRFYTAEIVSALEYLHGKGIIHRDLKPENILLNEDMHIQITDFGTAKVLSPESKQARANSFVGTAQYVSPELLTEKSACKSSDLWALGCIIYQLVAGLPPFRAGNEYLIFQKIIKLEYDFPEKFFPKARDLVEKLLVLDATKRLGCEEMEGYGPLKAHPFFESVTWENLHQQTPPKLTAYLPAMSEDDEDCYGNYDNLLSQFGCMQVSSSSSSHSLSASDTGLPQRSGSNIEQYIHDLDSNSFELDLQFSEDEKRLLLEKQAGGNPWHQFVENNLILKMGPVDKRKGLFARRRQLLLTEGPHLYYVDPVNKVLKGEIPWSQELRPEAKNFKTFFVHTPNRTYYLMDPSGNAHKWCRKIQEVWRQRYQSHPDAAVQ
Experimental: as §1

[5] = biological target: T4, TNIK (Homo sapiens (Human), UniProt Q9UKE5); assay: as above; assay type: biochemical; conditions: recombinant protein, read-out: TNIK inhibiting activity level (IC50)
Experimental: as §1
Target sequence in this assay (Q9UKE5 whole entry, species assumed): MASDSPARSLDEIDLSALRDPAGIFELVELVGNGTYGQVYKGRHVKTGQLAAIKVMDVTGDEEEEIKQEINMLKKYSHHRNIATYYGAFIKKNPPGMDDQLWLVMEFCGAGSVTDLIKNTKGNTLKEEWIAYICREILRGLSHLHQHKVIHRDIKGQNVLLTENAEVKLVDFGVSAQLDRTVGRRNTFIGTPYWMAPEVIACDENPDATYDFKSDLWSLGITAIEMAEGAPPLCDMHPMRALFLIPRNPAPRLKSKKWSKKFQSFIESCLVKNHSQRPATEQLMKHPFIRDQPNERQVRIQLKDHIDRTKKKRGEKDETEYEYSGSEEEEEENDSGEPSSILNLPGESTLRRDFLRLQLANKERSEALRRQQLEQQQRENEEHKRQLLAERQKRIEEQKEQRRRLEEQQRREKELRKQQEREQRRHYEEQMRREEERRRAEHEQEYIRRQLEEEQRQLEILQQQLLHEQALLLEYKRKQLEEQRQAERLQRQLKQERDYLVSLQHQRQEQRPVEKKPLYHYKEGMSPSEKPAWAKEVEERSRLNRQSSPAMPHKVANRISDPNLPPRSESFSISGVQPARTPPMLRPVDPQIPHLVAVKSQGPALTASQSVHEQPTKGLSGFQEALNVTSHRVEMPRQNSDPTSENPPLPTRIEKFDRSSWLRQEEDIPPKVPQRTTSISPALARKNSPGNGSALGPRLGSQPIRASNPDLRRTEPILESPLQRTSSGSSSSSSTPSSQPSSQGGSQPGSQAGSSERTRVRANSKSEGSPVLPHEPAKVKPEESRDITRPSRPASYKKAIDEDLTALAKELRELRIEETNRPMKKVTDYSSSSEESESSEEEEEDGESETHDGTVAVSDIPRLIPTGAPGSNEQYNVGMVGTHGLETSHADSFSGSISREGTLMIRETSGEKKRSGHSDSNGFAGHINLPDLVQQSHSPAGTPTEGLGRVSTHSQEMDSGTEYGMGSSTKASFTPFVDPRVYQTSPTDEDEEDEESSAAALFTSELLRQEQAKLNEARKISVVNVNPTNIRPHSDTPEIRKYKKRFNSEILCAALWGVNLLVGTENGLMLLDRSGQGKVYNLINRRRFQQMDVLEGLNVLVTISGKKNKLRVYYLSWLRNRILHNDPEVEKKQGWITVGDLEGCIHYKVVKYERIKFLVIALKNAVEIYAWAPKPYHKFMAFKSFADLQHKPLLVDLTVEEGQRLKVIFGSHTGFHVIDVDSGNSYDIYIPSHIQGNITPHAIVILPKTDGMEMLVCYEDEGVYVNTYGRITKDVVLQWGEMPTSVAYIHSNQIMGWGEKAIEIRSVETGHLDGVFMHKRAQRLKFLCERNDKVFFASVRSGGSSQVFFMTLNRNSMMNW

[6] = Oral maximum tolerated dose / oral acute toxicity test in mice; assay type: in vivo; conditions: for Death, Female mice / Death, Male mice: P.O.; for MTD: mouse, in vivo, po, mice, single dose
From the text: The inventors tested representative compounds for oral maximum tolerated dose in mice.

[7] = system: Feline Infectious Peritonitis; assay: Animal clinical trial in cats with Feline Infectious Peritonitis; assay type: in vivo; conditions: 20 days; for ALB/GLB, After treatment / Feline serum amyloid A (fSAA, mg/L), After treatment: 1.5 mg/kg twice a day; for body weight (kg), After treatment: injection 1.5 mg/kg twice a day
From the text: Therefore, the inventors hypothesized that HPK1 inhibitors might have therapeutic effects on Feline Infectious Peritonitis. To validate this hypothesis, the inventors conducted an animal clinical trial. Three animals were included in the experiment, all of them suffered from Feline Infectious Peritonitis, aged between 5-12 months, one was female and the other two were male (Table 4).

[8] = biological target: T1, HPK1; assay: Inhibition of HPK1 kinase activity in vitro (ADP-Glo), compounds of Formula I-2; assay type: biochemical; conditions: ADP-Glo; read-out: Activity/IC50, nM HPK1
Experimental: The starting concentration for all tested compounds was 10 μM, and diluted in three-fold concentration gradient for a total of 10 concentration points in duplicate. Before the experiment, 50 μM DTT and the enzymatic reaction system buffer were prepared. […] A mixture of 2-fold concentration of MBP and ATP was prepare in the kinase buffer, and 2.5 μL of prepared mixture of 2-fold concentration of MBP and ATP was added into the above reaction system for the reaction, centrifuged at 1000 g for 30 s, and then incubated at room temperature for 1 h. 5 μL of ADP-Glo reagent was added into the reaction system, and incubated at room temperature for 40 min. 10 μL of kinase detection reagent was added and incubated at room temperature for 40 min. […] In the above formula, empd refers to the tested compound, PC refers to the positive control, and VC refers to the negative control.

[9] = biological target: T2, GCK; assay: Inhibition of GCK kinase activity in vitro (ADP-Glo); assay type: biochemical; conditions: ADP-Glo; read-out: Activity/IC50, nM GCK
Experimental: (§2) The starting concentration for all tested compounds was 10 μM, and diluted in three-fold concentration gradient for a total of 10 concentration points in duplicate. […] A mixture of 2-fold concentration of MBP and ATP was prepare in the kinase buffer, and 2.5 μL of prepared mixture of 2-fold concentration of MBP and ATP was added into the above reaction system for the reaction, centrifuged at 1000 g for 30 s, and then incubated at room temperature for 1 h. 5 μL of ADP-Glo reagent was added into the reaction system, and incubated at room temperature for 40 min. 10 μL of kinase detection reagent was added and incubated at room temperature for 40 min.

[10] = biological target: T4, TNIK; assay: Inhibition of TNIK kinase activity in vitro (ADP-Glo); assay type: biochemical; conditions: ADP-Glo; read-out: Activity/IC50, nM TNIK
Experimental: as §2
Target sequence in this assay (Q9UKE5 whole entry): as the sequence (Q9UKE5 whole entry, species assumed) above

[11] = biological target: T3, PDK1; assay: Inhibition of PDK1 kinase activity in vitro (ADP-Glo); assay type: biochemical; conditions: ADP-Glo; read-out: Activity/IC50, nM PDK1
Experimental: as §2

T1 sequence (Q92918 whole entry): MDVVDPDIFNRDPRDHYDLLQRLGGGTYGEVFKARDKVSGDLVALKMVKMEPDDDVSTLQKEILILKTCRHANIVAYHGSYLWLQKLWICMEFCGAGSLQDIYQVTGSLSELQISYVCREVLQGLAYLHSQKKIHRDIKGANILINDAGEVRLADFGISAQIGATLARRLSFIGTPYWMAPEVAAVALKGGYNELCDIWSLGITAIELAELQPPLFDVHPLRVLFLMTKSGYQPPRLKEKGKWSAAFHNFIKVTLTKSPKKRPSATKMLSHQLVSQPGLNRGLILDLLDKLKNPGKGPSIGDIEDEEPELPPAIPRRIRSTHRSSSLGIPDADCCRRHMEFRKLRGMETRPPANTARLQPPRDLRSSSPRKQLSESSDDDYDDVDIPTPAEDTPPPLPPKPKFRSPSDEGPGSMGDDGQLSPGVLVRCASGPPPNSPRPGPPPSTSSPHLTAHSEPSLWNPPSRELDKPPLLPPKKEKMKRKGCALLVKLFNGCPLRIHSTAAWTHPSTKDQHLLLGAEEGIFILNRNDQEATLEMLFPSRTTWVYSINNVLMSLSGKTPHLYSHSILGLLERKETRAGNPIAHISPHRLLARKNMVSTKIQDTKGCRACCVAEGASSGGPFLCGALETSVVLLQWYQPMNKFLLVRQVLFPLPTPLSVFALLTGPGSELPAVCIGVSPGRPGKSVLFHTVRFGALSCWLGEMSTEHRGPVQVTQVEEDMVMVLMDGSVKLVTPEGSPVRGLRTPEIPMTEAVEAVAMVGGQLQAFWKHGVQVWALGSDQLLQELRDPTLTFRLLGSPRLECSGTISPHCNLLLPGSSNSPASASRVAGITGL

Compound	IC50 [1] [nM]	IC50 [2] [nM]	IC50 [3] [nM]	IC50 [4] [nM]	IC50 [5] [nM]	also measured
4-((2-((4-((2-(dimethylamino)ethyl)(methyl)amino)phenyl)amino)quinazolin-8-yl)oxo)cyclohexan-1-ol [Example 2]	< 50	–	–	–	–	–
CN1CCC(n2cc(Nc3ncc4cccc(O[C@H]5CC[C@H](N)CC5)c4n3)cn2)CC1 [Compound C1]	–	10 to 100	≤ 10	100 to 1000	100 to 1000	Death, Female mice ([6]; 225 mg/kg): 0/5; Death, Male mice ([6]; 225 mg/kg): 0/5; Death, Female mice ([6]; 337.5 mg/kg): 0/5; Death, Male mice ([6]; 337.5 mg/kg): 0/5; Death, Female mice ([6]; 506.3 mg/kg): 1/5; Death, Male mice ([6]; 506.3 mg/kg): 2/5; Death, Female mice ([6]; 759.4 mg/kg): 4/5; Death, Male mice ([6]; 759.4 mg/kg): 4/5; Death, Female mice ([6]; 1139.1 mg/kg): 5/5; Death, Male mice ([6]; 1139.1 mg/kg): 5/5; MTD [6]: 338 mg/kg; ALB/GLB, After treatment ([7]; Animal No. 1, before treatment 0.5): 0.7; body weight (kg), After treatment ([7]; Animal No. 1, before treatment 1.5): 2.15 kg; ALB/GLB, After treatment ([7]; Animal No. 2, before treatment 0.35): 0.47; Feline serum amyloid A (fSAA, mg/L), After treatment ([7]; Animal No. 2, before treatment 70.47): 15.14 mg/L; body weight (kg), After treatment ([7]; Animal No. 2, before treatment 2.31): 2.81 kg; ALB/GLB, After treatment ([7]; Animal No. 3, before treatment 0.4): 0.5; Feline serum amyloid A (fSAA, mg/L), After treatment ([7]; Animal No. 3, before treatment 104.88): 17.97 mg/L; body weight (kg), After treatment ([7]; Animal No. 3, before treatment 2.9): 3.2 kg
CN1CCN(c2ccc(Nc3ncc4cccc(O[C@H]5CC[C@H](O)CC5)c4n3)cc2)CC1 [Compound C3]	–	10 to 100	10 to 100	> 1000	10 to 100	Death, Female mice ([6]; 225 mg/kg): 0/5; Death, Male mice ([6]; 225 mg/kg): 0/5; Death, Female mice ([6]; 337.5 mg/kg): 2/5; Death, Male mice ([6]; 337.5 mg/kg): 1/5; Death, Female mice ([6]; 506.3 mg/kg): 2/5; Death, Male mice ([6]; 506.3 mg/kg): 3/5; Death, Female mice ([6]; 759.4 mg/kg): 5/5; Death, Male mice ([6]; 759.4 mg/kg): 3/5; Death, Female mice ([6]; 1139.1 mg/kg): 5/5; Death, Male mice ([6]; 1139.1 mg/kg): 5/5; MTD [6]: 225 mg/kg
Cn1cccc1-c1cc2cc(NC(=O)[C@@H]3C[C@@H]3F)ncc2c(N)c1F [DD02001A cis, (1S,2S)—N-(8-amino-7-fluoro-6-(1-methyl-1H-pyrrole-2-yl)isoquinolin-3-yl)-2-fluorocyclopropane-1-carboxamide]	–	–	–	–	–	IC50 [8]: < 10 nM; IC50 [9]: > 10 nM; IC50 [10]: > 10 nM; IC50 [11]: > 7000 nM
CN1CCC(n2cc(Nc3ncc4cccc(O[C@H]5CC[C@@H](N)CC5)c4n3)cn2)CC1 [Example 1, 8-(((1s,4s)-4-aminocyclohexyl)oxo)-N-(1-(1-methylpiperidin-4-yl)-1H-pyrazol-4-yl)quinazolin-2-amine]	< 50	–	–	–	–	–
CN1CCC(n2cc(Nc3ncc4cccc(OC5CCC(O)CC5)c4n3)cn2)CC1 (centres unmarked) [Example 3, 4-((2-((1-(1-methylpiperidin-4-yl)-1H-pyrazol-4-yl)amino)quinazolin-8-yl)oxo)cyclohexan-1-ol]	< 50	–	–	–	–	–
CN1CCN(c2ccc(Nc3ncc4cccc(OC5CCC(O)CC5)c4n3)cc2)CC1 (centres unmarked) [Example 4]	< 50	–	–	–	–	–
COCCOc1cccc2cnc(Nc3ccc(N4CCN(C)CC4)cc3)nc12 [Example 5, 8-(2-methoxyethoxy)-N-(4-(4-methylpiperazin-1-yl)phenyl)quinazolin-2-amine]	< 200	–	–	–	–	–
CN1CCN(c2ccc(Nc3ncc4cccc(OC5CCC(O)C5)c4n3)cc2)CC1 (centres unmarked) [Example 6]	< 100	–	–	–	–	–
CN1CCN(c2ccc(Nc3ncc4cccc(OC5CCC(O)CC5)c4n3)nc2)CC1 (centres unmarked) [Example 7, 4-((2-((5-(4-methylpiperazin-1-yl)pyridin-2-yl)amino)quinazolin-8-yl)oxo)cyclohexan-1-ol]	< 300	–	–	–	–	–
CN1CCC(NC(=O)c2ccc(Nc3ncc4cccc(OC5CCC(O)CC5)c4n3)cc2)CC1 (centres unmarked) [Example 8, 4-((8-((4-hydroxycyclohexyl)oxo)quinazolin-2-yl)amino)-N-(1-methylpiperidin-4-yl)benzamide]	< 50	–	–	–	–	–
NS(=O)(=O)c1ccc(Nc2ncc3cccc(OC4CCC(O)C4)c3n2)cc1 (centres unmarked) [Example 9, 4-((8-((3-hydroxycyclopentyl)oxo)quinazolin-2-yl)amino)benzenesulfonamide]	< 300	–	–	–	–	–
NS(=O)(=O)c1cccc(Nc2ncc3cccc(OC4CCC(O)CC4)c3n2)c1 (centres unmarked) [Example 10, 3-((8-((4-hydroxycyclohexyl)oxo)quinazolin-2-yl)amino)benzenesulfonamide]	> 300	–	–	–	–	–

Further lines, with some results ahead:

IC50 [1] [nM]	IC50 [2] [nM]	IC50 [3] [nM]	IC50 [4] [nM]	IC50 [5] [nM]	Compound	also measured
–	10 to 100	≤ 10	100 to 1000	100 to 1000	CN1CCC(n2cc(Nc3ncc4cccc(O[C@H]5CC[C@@H](N)CC5)c4n3)cn2)CC1 [Compound C2]	–
–	10 to 100	10 to 100	> 1000	10 to 100	CN1CCN(c2ccc(Nc3ncc4cccc(O[C@H]5CC[C@@H](O)CC5)c4n3)cc2)CC1 [Compound C4]	–
–	≤ 10	≤ 10	> 1000	10 to 100	Cn1cccc1-c1cc2cc(NC(=O)C3C[C@H]3F)ncc2c(N)c1F (some centres unmarked) [Compound C5]	–
–	10 to 100	≤ 10	> 1000	10 to 100	Cn1cccc1-c1cc2cc(NC(=O)C3C[C@@H]3F)ncc2c(N)c1F (some centres unmarked) [Compound C6]	–
